Where two headings read alike, the source gives them in different places.
How the values were obtained:
CB2R [1] = molecular target: T1, CB2R (Homo sapiens, UniProt P34972); test: Competitive radioligand binding assay, [3H]-CP55,940, HEK293 membranes; details: for Cannabinoid Receptors (% Displacement) CB2: 10 μM purified compounds and 2 + 3
T1 construct: expressed in transfected cells; host or cells: HEK293 (ATCC), stably transfected; membrane preparation
Procedure: (§1) Cannabinoid and opioid competitive radioligand binding assays were performed as previously described. Saturation experiments were performed for all the receptors to determine receptor concentration and radioligand dissociation constant (Kd) for the membrane. Percent displacements were evaluated for all the cannabinoid and opioid subtypes with a triplicate of a fixed concentration (10 µg/mL for extracts and fractions, 10 μM for purified compounds). […] Control/test compounds were dissolved in DMSO at 10 μg/mL for extracts and fractions and 10 μM for purified compounds. […] The competitive binding assays were performed using 12 serial dilutions of each compound ranging from 0.002–300 μM (control compounds were serially diluted from 10 μM to 0.06 nM). The cannabinoid assays were incubated for 90 min at 37 °C with gentle agitation. The opioid assays were incubated for 60 min at room temperature. Bound radioligand was collected on GF/C (cannabinoid) or GF/B plates (opioid), washed 10 times with ice-cold 50 mM Tris-HCl (pH 7.4)/0.1% BSA (cannabinoid) or ice-cold 50 mM Tris-HCl (pH 7.4) (opioid). Radiodetection was measured with 50 µL (cannabinoid) or 25 µL (opioid) MicroScint^TM-20 on a TopCount NXT HTS Microplate Scintillation Counter (PerkinElmer, Waltham, MA, USA). The IC50 and Ki values were calculated by a non-linear curve fit model using GraphPad Prizm 5.0 software (GraphPad Software Inc., San Diego, CA, USA). Each compound was tested in triplicate unless stated otherwise.
(§2) Percent displacement was calculated to represent the ability of the samples to displace the radioligand binding for a given cannabinoid or opioid receptor subtype.
(§3) % displacement was calculated as follows: 100− binding of compound−nonspecific binding/specific binding×100

δ opioid receptor = molecular target: T2, δ opioid receptor (Homo sapiens, UniProt P41143); test: Competitive radioligand binding assay, [3H]-enkephalin (DPDPE), HEK293 membranes; details: 10 μM purified compounds and 2 + 3
T2 construct: host or cells: HEK293, stably transfected; membrane preparation
Procedure: (§4) HEK293 cells stably transfected with δ, κ, and μ opioid subtypes were a generous gift from Roth Laboratories (University of North Carolina at Chapel Hill, NC, USA). Opioid cells were maintained as previously described. Membranes were made by washing the cells with cold PBS. The cells were then scraped in cold 50 mM Tris-HCl, pH 7.4 buffer. The solution was centrifuged at 5200× g for 10 min at 4 °C. Next, the supernatant was discarded, and the pellet was washed with more Tris-HCl buffer, homogenized via Sonic Dismembrator (Fisher Scientific, Pittsburgh, PA, USA) and then centrifuged at 24,000× g for 40 min at 4 °C. […] The total membrane protein concentration was measured using a Pierce BCA Protein Assay Kit (Thermo Scientific, Rockford, IL, USA) as per the manufacturer’s protocol.
(§5) Cannabinoid and opioid competitive radioligand binding assays were performed as previously described. […] Percent displacements were evaluated for all the cannabinoid and opioid subtypes with a triplicate of a fixed concentration (10 µg/mL for extracts and fractions, 10 μM for purified compounds). […] Radiodetection was measured with 50 µL (cannabinoid) or 25 µL (opioid) MicroScint^TM-20 on a TopCount NXT HTS Microplate Scintillation Counter (PerkinElmer, Waltham, MA, USA). The IC50 and Ki values were calculated by a non-linear curve fit model using GraphPad Prizm 5.0 software (GraphPad Software Inc., San Diego, CA, USA). […]

CB2R [2] = test system: CB2R; parameters: method as in Schuehly et al. (2011); details: ref Schuehly et al. (2011); cited from earlier work
CB1 receptor = test system: CB1 receptor; parameters: method as in PMID 24204944; details: forskolin-induced cAMP; cited from earlier work
µ opioid receptor = molecular target: T3, µ opioid receptor (Homo sapiens, UniProt P35372); test: biochemical; type: binding; details: for Opioid Receptors (% Displacement) µ: 10 μM purified compounds and 2 + 3; for IC50: 2 and 3 run as a singlet; for µ Opioid Receptor Ki ± SEM / Ki: 2 and 3 run as a singlet (no S.E.M.); for Ki: read-out: µ Opioid Receptor Ki ± SEM
T3 construct: host or cells: HEK293, stably transfected; membrane preparation
Procedure: (§6) HEK293 cells stably transfected with δ, κ, and μ opioid subtypes were a generous gift from Roth Laboratories (University of North Carolina at Chapel Hill, NC, USA). Opioid cells were maintained as previously described. Membranes were made by washing the cells with cold PBS. The cells were then scraped in cold 50 mM Tris-HCl, pH 7.4 buffer. The solution was centrifuged at 5200× g for 10 min at 4 °C. Next, the supernatant was discarded, and the pellet was washed with more Tris-HCl buffer, homogenized via Sonic Dismembrator (Fisher Scientific, Pittsburgh, PA, USA) and then centrifuged at 24,000× g for 40 min at 4 °C. Finally, the pellet was re-suspended in cold 50 mM Tris-HCl buffer, aliquoted into 2 mL vials, and stored at −80 °C. The total membrane protein concentration was measured using a Pierce BCA Protein Assay Kit (Thermo Scientific, Rockford, IL, USA) as per the manufacturer’s protocol.
as §1, §2, §3

CB2R [3] = details: cited from earlier work
κ opioid receptor = molecular target: T4, κ opioid receptor (Homo sapiens, UniProt P41145); type: binding; details: 10 μM purified compounds and 2 + 3
T4 construct: host or cells: HEK293, stably transfected; membrane preparation
Procedure: as §4, §5

CB2 receptor = test system: CB2 receptor; parameters: method as in PMID 24204944; details: forskolin-induced cAMP; cited from earlier work
CB1R [4] = molecular target: T5, CB1R (Homo sapiens, UniProt P21554); test: Competitive radioligand binding assay, [3H]-CP55,940, HEK293 membranes; details: for Cannabinoid Receptors (% Displacement) CB1: 10 μM purified compounds and 2 + 3; for IC50: concentration for 50% displacement of 3H-labeled ligand; for Ki: read-out: CB1R Ki ± SEM
T5 construct: expressed in transfected cells; host or cells: HEK293 (ATCC), stably transfected; membrane preparation
Procedure: as §6, §1, §2, §3

CB2R [5] = test system: CB2R; parameters: method as in earlier work; details: ref 27 (Rempel et al. 2013); cited from earlier work
CB1R [6] = details: data from the original publication; read-out: CB1R Agonist Ki; cited from earlier work
[7] = data from the original publication, read-out: CB2R Agonist Ki
[8] = concentration for 50% displacement of 3H-labeled ligand, read-out: CB2R IC50

T5 sequence (P21554 whole entry): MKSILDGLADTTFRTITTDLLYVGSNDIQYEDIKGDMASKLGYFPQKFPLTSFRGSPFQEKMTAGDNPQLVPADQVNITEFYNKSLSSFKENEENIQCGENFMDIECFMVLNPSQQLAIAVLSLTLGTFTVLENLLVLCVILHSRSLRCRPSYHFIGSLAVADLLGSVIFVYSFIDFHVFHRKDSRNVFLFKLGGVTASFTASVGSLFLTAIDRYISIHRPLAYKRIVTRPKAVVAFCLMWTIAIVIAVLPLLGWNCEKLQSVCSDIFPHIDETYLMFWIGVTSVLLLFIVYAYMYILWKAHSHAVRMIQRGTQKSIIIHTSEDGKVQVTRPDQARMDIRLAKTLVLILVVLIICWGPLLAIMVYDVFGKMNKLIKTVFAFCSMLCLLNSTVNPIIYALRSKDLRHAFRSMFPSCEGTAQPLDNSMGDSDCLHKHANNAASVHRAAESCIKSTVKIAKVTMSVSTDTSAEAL
T1 sequence (P34972 whole entry): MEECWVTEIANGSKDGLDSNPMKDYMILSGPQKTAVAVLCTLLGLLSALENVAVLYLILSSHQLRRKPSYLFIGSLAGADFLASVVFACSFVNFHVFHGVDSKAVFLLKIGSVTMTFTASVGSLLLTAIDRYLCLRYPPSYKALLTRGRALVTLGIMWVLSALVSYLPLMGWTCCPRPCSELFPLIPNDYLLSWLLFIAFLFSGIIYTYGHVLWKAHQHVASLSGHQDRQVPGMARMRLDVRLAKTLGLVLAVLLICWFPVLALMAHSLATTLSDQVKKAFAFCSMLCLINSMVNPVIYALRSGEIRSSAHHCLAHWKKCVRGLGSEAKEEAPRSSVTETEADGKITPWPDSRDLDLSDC
T3 sequence (P35372 whole entry): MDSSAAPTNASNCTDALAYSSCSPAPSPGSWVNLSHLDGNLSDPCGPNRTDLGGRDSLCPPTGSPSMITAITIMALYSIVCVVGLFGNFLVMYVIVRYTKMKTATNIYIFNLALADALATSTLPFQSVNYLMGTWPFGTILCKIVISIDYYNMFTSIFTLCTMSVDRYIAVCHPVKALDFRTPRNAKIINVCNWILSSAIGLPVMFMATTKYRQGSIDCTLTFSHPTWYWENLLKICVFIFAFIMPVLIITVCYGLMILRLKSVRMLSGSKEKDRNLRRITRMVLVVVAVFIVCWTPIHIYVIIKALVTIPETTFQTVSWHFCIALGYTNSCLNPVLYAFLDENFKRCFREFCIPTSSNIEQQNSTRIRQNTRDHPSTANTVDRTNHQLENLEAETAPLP
T2 sequence (P41143 whole entry): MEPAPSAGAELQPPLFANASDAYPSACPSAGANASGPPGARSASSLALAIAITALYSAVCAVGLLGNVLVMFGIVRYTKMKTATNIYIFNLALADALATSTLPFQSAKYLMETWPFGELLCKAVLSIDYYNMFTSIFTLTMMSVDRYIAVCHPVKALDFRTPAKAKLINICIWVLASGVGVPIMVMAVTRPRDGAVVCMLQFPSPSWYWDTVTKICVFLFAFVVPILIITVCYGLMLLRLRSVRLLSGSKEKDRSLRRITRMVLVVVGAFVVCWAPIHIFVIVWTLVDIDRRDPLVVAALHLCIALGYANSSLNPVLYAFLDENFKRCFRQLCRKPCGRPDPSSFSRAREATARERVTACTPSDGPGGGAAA
T4 sequence (P41145 whole entry): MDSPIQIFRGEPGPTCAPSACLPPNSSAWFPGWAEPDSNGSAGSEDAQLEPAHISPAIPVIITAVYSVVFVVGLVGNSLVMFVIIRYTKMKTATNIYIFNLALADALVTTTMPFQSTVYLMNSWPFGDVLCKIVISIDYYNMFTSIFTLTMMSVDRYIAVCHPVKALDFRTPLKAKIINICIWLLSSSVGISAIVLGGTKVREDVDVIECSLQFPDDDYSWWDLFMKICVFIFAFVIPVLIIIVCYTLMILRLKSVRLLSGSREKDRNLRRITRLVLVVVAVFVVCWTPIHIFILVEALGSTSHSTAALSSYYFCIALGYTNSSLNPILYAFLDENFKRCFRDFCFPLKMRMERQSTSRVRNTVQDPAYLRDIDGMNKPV

SMILES: CCCCCCC(C)(C)c1ccc([C@@H]2C[C@H](O)CC[C@H]2CCCO)c(O)c1 [CP55,940, reference compound]
- Cannabinoid Receptors (% Displacement) CB2 (CB2R [1]): 101.3%

SMILES: C=CCc1ccc(O)c(-c2ccc(OC)c(CC=C)c2)c1 [Compound 1, 4-O-methylhonokiol]
- Opioid Receptors (% Displacement) Δ (δ opioid receptor): 31.4%
- behavior at CB2R at Gi/o (CB2R [2]): inverse agonist
- behavior at CB2R regarding intracellular Ca2+ [Ca2+]i (CB2R [2]): full agonist
- IC50 (CB2R [1]): 0.59 µM
- Ki (CB2R [1]): 0.29 ± 0.02 µM
- Cannabinoid Receptors (% Displacement) CB2 (CB2R [1]): 82.2%
- functional activity at CB1 in cAMP accumulation (CB1 receptor): agonist
- Opioid Receptors (% Displacement) µ (µ opioid receptor): 46.2%
- Ki (CB2R [3]; [7]): 0.0433 ± 0.0171 µM
- Opioid Receptors (% Displacement) κ (κ opioid receptor): 18.3%
- functional activity at CB2 in cAMP accumulation (CB2 receptor): agonist

SMILES: C=CCc1ccc(O)c(-c2cc(CC=C)ccc2O)c1 [Compound 2, magnolol]
- Opioid Receptors (% Displacement) Δ (δ opioid receptor): 7.3%
- Cannabinoid Receptors (% Displacement) CB1 (CB1R [4]): 52.7%
- IC50 (CB1R [4]): 35.6 µM
- Ki (CB1R [4]): 17.8 ± 3.43 µM
- functional character at CB2R (CB2R [5]): partial CB2R agonists
- Cannabinoid Receptors (% Displacement) CB2 (CB2R [1]): 74.7%
- IC50 (CB2R [1]; [8]): 2.89 µM
- Ki (CB2R [1]; read-out: CB2R Ki ± SEM): 1.4 ± 0.14 µM
- Opioid Receptors (% Displacement) µ (µ opioid receptor): 52.9%
- IC50 (µ opioid receptor): 106 µM
- µ Opioid Receptor Ki ± SEM (µ opioid receptor): low affinity
- Ki (µ opioid receptor): 53.1 µM
- Ki (CB2R [3]; [7]): 1.44 µM
- Ki (CB1R [6]): 3.15 µM
- Opioid Receptors (% Displacement) κ (κ opioid receptor): 10.7%

SMILES: C=CCc1ccc(O)c(-c2ccc(O)c(CC=C)c2)c1 [Compound 3, honokiol]
- Cannabinoid Receptors (% Displacement) CB1 (CB1R [4]): 50.8%
- IC50 (CB1R [4]): 29.1 µM
- Ki (CB1R [4]): 14.5 ± 2.47 µM
- functional character at CB2R (CB2R [5]): CB2R antagonist or inverse agonist
- Cannabinoid Receptors (% Displacement) CB2 (CB2R [1]): 65.7%
- IC50 (CB2R [1]; [8]): 3.88 µM
- Ki (CB2R [1]; read-out: CB2R Ki ± SEM): 1.94 ± 0.16 µM
- Opioid Receptors (% Displacement) µ (µ opioid receptor): 54.2%
- IC50 (µ opioid receptor): 91.1 µM
- µ Opioid Receptor Ki ± SEM (µ opioid receptor): low affinity
- Ki (µ opioid receptor): 182 µM
- Ki (CB2R [3]; [7]): 5.61 µM
- Ki (CB1R [6]): 6.46 µM

SMILES: CCCc1ccc(O)c(-c2cc(CCC)ccc2O)c1 [Compound 4, tetrahydromagnolol]
- Cannabinoid Receptors (% Displacement) CB1 (CB1R [4]): 30.8%
- IC50 (CB1R [4]): 38.2 µM
- Ki (CB1R [4]): 19.1 ± 0.79 µM
- functional character at CB2R (CB2R [5]): partial CB2R agonists
- Cannabinoid Receptors (% Displacement) CB2 (CB2R [1]): 78.2%
- IC50 (CB2R [1]; [8]): 1.99 µM
- Ki (CB2R [1]; read-out: CB2R Ki ± SEM): 0.99 ± 0.14 µM
- Ki (CB2R [3]; [7]): 0.416 µM
- Ki (CB2R [3]; ref 27 (Rempel et al. 2013), read-out: CB2R Ki): 0.41 µM
- Ki (CB1R [6]): 2.26 µM

SMILES: CCCc1ccc(O)c(-c2cc(CCC)ccc2OC)c1 [Compound 4a, methoxytetrahydromagnolol]
- Ki (CB2R [3]; [7]): 0.221 ± 0.057 µM
- Ki (CB1R [6]): 0.267 ± 0.058 µM

SMILES: CCCCCc1ccc(O)c(-c2cc(CCC)ccc2O)c1 [Compound 5]
- Ki (CB2R [3]; [7]): 0.0375 ± 0.0078 µM
- Ki (CB1R [6]): 0.362 ± 0.113 µM

SMILES: CCCCCc1ccc(O)c(-c2cc(CCC)ccc2OC)c1 [Compound 5a]
- Ki (CB2R [3]; [7]): 0.031 ± 0.0099 µM
- Ki (CB1R [6]): 0.0173 ± 0.0014 µM

SMILES: CCCCCCc1ccc(O)c(-c2cc(CCC)ccc2O)c1 [Compound 6]
- Ki (CB2R [3]; [7]): 0.0294 ± 0.009 µM
- Ki (CB1R [6]): 0.145 ± 0.048 µM

SMILES: CCCCCCc1ccc(O)c(-c2cc(CCC)ccc2OC)c1 [Compound 6a]
- Ki (CB2R [3]; [7]): 0.0238 ± 0.0071 µM
- Ki (CB1R [6]): 0.00957 ± 0.00543 µM

SMILES: CCCCCCc1ccc(OC)c(-c2cc(CCC)ccc2O)c1 [Compound 6b]
- Ki (CB2R [3]; [7]): 0.281 ± 0.101 µM
- Ki (CB1R [6]): 0.313 µM

— paper PMC9920749, “In Vitro and In Silico Studies of Neolignans from Magnolia grandiflora L. Seeds against Human Cannabinoids and Opioid Receptors” (Molecules, 2023)
